Reference: ChEMBL document CHEMBL4270607, “Identification of crizotinib derivatives as potent SHIP2 inhibitors for the treatment of Alzheimer's disease” (Eur J Med Chem, 2018)
Activity calls are given as the source filed them. The calls are words filed in the database; no cut-off is given here.

How the values were obtained:
[1] = Metabolic stability in human liver microsomes assessed as parent compound remaining at 1 uM preincubated for 5 mins followed by NADPH addition measured after 30 mins by LC-MS/MS analysis; assay type: ADME, microsome; settings: read-out: Stability
[2] = Metabolic stability in dog liver microsomes assessed as parent compound remaining at 1 uM preincubated for 5 mins followed by NADPH addition measured after 30 mins by LC-MS/MS analysis; assay type: ADME, Canis lupus familiaris, microsome; settings: read-out: Stability
[3] = Metabolic stability in mouse liver microsomes assessed as parent compound remaining at 1 uM preincubated for 5 mins followed by NADPH addition measured after 30 mins by LC-MS/MS analysis; assay type: ADME, microsome; settings: read-out: Stability
[4] = tested on: HT-22; test: Cytotoxicity against mouse HT22 cells assessed as decrease in cell viability at 10 uM after 24 hrs by MTT assay; assay type: cell-based; settings: ht-22, 24 h
[5] = molecular target: CYP2D6 (Homo sapiens, UniProt P10635); test: Inhibition of recombinant human CYP2D6 assessed as remaining enzyme activity at 10 uM preincubated for 5 mins followed by NADPH addition measured after 20 mins by fluorescence assay relative to control; assay type: ADME; settings: read-out: Activity
[6] = molecular target: CYP2C19 (Homo sapiens, UniProt P33261); test: Inhibition of recombinant human CYP2C19 assessed as remaining enzyme activity at 10 uM preincubated for 5 mins followed by NADPH addition measured after 20 mins by fluorescence assay relative to control; assay type: ADME; settings: read-out: Activity
[7] = Metabolic stability in rat liver microsomes assessed as parent compound remaining at 1 uM preincubated for 5 mins followed by NADPH addition measured after 30 mins by LC-MS/MS analysis; assay type: ADME, microsome; settings: read-out: Stability
[8] = molecular target: CYP3A4 (Homo sapiens, UniProt P08684); test: Inhibition of recombinant human CYP3A4 assessed as remaining enzyme activity at 10 uM preincubated for 5 mins followed by NADPH addition measured after 20 mins by fluorescence assay relative to control; assay type: ADME; settings: read-out: Activity
[9] = molecular target: T1, Phosphatidylinositol 3,4,5-trisphosphate 5-phosphatase 2 (Mus musculus) (UniProt Q6P549); test: Inhibition of SHIP2 in mouse HT22 cells assessed as decrease in PI(3,4)P2 production at 10 uM after 24 hrs by mKate2-TAPP1-PH based fluorescence imaging method; assay type: cell-based
T1 sequence (whole entry): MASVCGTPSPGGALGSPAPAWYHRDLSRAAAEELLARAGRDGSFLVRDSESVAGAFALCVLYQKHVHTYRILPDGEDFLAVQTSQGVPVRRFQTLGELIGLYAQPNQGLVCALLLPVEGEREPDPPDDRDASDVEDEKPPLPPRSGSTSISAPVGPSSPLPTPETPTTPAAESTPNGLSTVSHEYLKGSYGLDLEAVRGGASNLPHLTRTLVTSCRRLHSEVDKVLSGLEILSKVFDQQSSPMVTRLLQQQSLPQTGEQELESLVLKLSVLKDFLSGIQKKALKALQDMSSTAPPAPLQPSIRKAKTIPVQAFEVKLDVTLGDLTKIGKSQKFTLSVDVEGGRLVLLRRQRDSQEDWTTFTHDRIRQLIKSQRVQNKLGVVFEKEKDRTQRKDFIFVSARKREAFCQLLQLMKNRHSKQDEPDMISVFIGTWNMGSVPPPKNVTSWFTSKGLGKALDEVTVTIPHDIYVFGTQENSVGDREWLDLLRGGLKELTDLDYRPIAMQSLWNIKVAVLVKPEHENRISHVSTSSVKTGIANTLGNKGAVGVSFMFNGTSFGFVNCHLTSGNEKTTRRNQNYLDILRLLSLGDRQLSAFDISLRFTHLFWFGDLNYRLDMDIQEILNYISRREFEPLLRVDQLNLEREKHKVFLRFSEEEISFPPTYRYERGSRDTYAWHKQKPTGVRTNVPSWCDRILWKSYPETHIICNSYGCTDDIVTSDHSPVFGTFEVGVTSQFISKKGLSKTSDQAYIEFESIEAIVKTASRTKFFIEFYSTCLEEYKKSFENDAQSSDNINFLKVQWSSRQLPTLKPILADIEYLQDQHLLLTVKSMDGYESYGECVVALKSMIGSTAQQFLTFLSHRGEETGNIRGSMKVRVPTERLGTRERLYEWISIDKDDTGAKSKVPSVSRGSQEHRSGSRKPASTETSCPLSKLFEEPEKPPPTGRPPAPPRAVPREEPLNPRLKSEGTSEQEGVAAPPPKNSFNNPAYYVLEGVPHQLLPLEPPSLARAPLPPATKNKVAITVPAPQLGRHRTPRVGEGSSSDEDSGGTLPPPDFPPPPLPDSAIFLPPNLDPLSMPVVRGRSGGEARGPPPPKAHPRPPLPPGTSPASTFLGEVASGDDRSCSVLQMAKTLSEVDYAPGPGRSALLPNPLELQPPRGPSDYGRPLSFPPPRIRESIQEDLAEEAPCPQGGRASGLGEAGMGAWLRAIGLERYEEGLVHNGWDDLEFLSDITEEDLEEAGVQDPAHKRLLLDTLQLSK

[10] = molecular target: T2, CYP1A2 (Homo sapiens, UniProt P05177); test: Inhibition of recombinant human CYP1A2 assessed as remaining enzyme activity at 10 uM preincubated for 5 mins followed by NADPH addition measured after 20 mins by fluorescence assay relative to control; assay type: ADME; settings: read-out: Activity
T2 sequence (P05177 whole entry): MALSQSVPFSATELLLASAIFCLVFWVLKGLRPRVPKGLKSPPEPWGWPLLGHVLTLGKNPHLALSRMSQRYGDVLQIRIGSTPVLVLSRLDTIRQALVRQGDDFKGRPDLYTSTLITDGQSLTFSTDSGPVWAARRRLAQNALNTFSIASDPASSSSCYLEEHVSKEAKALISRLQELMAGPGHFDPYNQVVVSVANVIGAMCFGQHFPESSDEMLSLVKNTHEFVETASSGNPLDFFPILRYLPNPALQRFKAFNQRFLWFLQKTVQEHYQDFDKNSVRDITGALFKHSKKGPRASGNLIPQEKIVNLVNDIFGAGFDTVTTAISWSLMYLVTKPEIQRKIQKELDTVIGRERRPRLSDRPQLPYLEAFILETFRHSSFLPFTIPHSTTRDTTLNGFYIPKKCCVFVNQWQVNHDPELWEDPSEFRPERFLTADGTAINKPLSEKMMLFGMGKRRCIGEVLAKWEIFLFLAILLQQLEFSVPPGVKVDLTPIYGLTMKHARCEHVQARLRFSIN

[11] = molecular target: CYP2C9 (Homo sapiens, UniProt P11712); test: Inhibition of recombinant human CYP2C9 assessed as remaining enzyme activity at 10 uM preincubated for 5 mins followed by NADPH addition measured after 20 mins by fluorescence assay relative to control; assay type: ADME; settings: read-out: Activity
Sequence of CYP2C9 (P11712 whole entry): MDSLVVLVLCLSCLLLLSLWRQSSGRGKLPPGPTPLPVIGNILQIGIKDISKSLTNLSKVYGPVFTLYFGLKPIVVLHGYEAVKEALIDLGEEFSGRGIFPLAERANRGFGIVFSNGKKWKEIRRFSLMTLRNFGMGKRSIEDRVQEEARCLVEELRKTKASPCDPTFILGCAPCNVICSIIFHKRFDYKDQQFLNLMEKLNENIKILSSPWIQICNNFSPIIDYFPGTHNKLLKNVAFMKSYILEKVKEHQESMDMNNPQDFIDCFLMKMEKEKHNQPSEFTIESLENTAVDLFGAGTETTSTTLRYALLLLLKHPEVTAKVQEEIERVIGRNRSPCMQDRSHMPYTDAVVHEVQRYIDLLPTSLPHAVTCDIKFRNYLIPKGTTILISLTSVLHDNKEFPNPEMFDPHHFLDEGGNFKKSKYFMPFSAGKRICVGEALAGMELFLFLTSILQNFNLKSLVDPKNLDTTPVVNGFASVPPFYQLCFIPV

Sequence of CYP3A4 (P08684 whole entry): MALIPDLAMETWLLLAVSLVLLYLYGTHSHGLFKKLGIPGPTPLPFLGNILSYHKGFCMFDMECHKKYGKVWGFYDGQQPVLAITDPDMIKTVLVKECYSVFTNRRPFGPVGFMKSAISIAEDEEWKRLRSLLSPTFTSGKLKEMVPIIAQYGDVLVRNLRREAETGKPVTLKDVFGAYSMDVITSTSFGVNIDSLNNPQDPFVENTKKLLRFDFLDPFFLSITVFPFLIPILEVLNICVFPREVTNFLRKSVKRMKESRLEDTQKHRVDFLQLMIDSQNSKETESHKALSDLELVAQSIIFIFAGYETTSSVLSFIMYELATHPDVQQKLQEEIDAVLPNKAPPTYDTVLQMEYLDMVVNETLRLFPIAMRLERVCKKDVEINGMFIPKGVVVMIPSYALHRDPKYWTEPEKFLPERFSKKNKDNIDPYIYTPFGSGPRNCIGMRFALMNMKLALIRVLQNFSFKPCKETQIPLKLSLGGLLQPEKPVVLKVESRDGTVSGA
Sequence of CYP2C19 (P33261 whole entry): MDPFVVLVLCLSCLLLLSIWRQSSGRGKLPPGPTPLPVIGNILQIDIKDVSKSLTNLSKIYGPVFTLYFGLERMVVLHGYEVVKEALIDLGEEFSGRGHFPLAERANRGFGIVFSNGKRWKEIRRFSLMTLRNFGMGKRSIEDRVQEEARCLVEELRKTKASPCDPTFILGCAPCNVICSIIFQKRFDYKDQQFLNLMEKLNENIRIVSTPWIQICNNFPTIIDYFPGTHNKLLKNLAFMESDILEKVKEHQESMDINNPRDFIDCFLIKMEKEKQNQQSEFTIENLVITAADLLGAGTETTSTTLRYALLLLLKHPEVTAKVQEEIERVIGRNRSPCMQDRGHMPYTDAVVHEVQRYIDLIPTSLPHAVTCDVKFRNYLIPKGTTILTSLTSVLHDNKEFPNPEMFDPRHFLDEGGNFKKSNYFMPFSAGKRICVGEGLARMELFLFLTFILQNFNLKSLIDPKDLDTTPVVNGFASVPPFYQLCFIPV
Sequence of CYP2D6 (P10635 whole entry): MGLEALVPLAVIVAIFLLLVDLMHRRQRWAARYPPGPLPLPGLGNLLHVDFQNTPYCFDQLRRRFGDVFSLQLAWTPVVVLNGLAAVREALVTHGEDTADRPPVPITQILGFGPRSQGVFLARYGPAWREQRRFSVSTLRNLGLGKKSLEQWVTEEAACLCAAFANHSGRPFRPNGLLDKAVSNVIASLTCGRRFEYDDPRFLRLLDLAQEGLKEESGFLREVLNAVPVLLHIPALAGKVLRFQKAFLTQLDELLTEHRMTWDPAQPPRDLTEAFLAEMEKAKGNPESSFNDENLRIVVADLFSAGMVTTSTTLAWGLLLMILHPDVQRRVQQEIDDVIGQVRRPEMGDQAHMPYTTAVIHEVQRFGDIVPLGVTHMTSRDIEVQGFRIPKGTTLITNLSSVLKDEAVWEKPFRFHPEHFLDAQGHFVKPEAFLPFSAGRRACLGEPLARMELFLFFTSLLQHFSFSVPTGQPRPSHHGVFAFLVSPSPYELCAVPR

Row | remaining at 0.5 h, 1 µM [1] | remaining at 0.5 h, 1 µM [2] | remaining at 0.5 h, 1 µM [3] | activity at 20 min, 10 µM [5] | activity at 20 min, 10 µM [6] | remaining at 0.5 h, 1 µM [7] | activity at 20 min, 10 µM [8] | inhibition [9] | activity at 20 min, 10 µM [10] | activity at 20 min, 10 µM [11] | SMILES | Activity [4]
1 | 44.1% | 5.7% | 6.4% | 82.7% | 16.4% | 28.3% | 20.2% | Active | 74.3% | 10.9% | O=C(NCc1c(F)cccc1F)c1sccc1OCc1ccc(Cl)cc1Cl | Toxic
2 | 74.5% | 24.3% | 38.8% | 93.1% | 89.9% | 64.3% | 96.7% | Active | 77.6% | 97.2% | N#Cc1ccc(-c2cncc(OCc3ccc(Cl)cc3Cl)c2)s1 | Non-Toxic
3 | 77% | 23.1% | 46.5% | 94.4% | 36.4% | 56.4% | 80.2% | Active | 59% | 66.7% | C[C@@H](Oc1cncc(-c2cnc(N)nc2)c1)c1c(Cl)ccc(F)c1Cl | Non-Toxic
